Numbers after ± are expanded uncertainties.
Test: xn = mol fraction of the nth substance listed
Conditions: 101 kPa, Liquid; for viscosity: Concentric cylinders viscometry; for speed of sound: Pulse-echo method; for mass density: Vibrating tube method

CCCCCCCO [heptan-1-ol] + C1COCCO1
Conditions	mass density, 313.15 K [kg/m3]	mass density, 318.15 K [kg/m3]	mass density, 323.15 K [kg/m3]	speed of sound, 313.15 K [m/s]	speed of sound, 318.15 K [m/s]	speed of sound, 323.15 K [m/s]	viscosity, 313.15 K [mPa·s]	viscosity, 318.15 K [mPa·s]	viscosity, 323.15 K [mPa·s]
x1 = 0.0505	992.162 ± 0.27	986.663 ± 0.27	981.158 ± 0.27	1275.6 ± 1.2	1254.7 ± 1.2	1233.5 ± 1.2	0.957 ± 0.033	0.888 ± 0.031	0.827 ± 0.029
x1 = 0.1	975.379 ± 0.26	970.046 ± 0.26	964.707 ± 0.26	1270.9 ± 1.2	1250.5 ± 1.2	1230.6 ± 1.2	0.976 ± 0.034	0.905 ± 0.032	0.842 ± 0.03
x1 = 0.1501	960.33 ± 0.26	955.144 ± 0.26	949.953 ± 0.26	1267.6 ± 1.2	1247.5 ± 1.2	1228.1 ± 1.2	1.009 ± 0.035	0.934 ± 0.033	0.867 ± 0.03
x1 = 0.2	946.025 ± 0.26	940.982 ± 0.26	935.93 ± 0.26	1264.9 ± 1.2	1245.2 ± 1.2	1226.2 ± 1.2	1.041 ± 0.036	0.964 ± 0.034	0.893 ± 0.031
x1 = 0.25	932.425 ± 0.25	927.545 ± 0.25	922.628 ± 0.25	1262.8 ± 1.2	1243.5 ± 1.2	1224.8 ± 1.2	1.088 ± 0.038	1.003 ± 0.035	0.928 ± 0.032
x1 = 0.2997	920.079 ± 0.25	915.295 ± 0.25	910.503 ± 0.25	1261.3 ± 1.2	1242.4 ± 1.2	1224 ± 1.2	1.143 ± 0.04	1.052 ± 0.037	0.971 ± 0.034
x1 = 0.3502	908.677 ± 0.25	904.009 ± 0.25	899.329 ± 0.25	1260.6 ± 1.2	1242 ± 1.2	1223.9 ± 1.2	1.209 ± 0.042	1.109 ± 0.039	1.021 ± 0.036
x1 = 0.4001	898.054 ± 0.24	893.497 ± 0.24	888.925 ± 0.24	1260 ± 1.2	1241.6 ± 1.2	1223.7 ± 1.2	1.278 ± 0.045	1.168 ± 0.041	1.073 ± 0.037
x1 = 0.4498	888.028 ± 0.24	883.572 ± 0.24	879.103 ± 0.24	1259.9 ± 1.2	1241.7 ± 1.2	1224.1 ± 1.2	1.361 ± 0.047	1.241 ± 0.043	1.136 ± 0.04
x1 = 0.4998	878.663 ± 0.24	874.304 ± 0.24	869.929 ± 0.24	1260.3 ± 1.2	1242.3 ± 1.2	1224.9 ± 1.2	1.463 ± 0.051	1.33 ± 0.046	1.213 ± 0.042
x1 = 0.55	870.001 ± 0.24	865.728 ± 0.24	861.446 ± 0.24	1260.7 ± 1.2	1243 ± 1.2	1225.7 ± 1.2	1.568 ± 0.054	1.419 ± 0.049	1.29 ± 0.045
x1 = 0.6004	861.838 ± 0.24	857.642 ± 0.24	853.441 ± 0.24	1262.1 ± 1.2	1244.1 ± 1.2	1227 ± 1.2	1.691 ± 0.059	1.526 ± 0.053	1.383 ± 0.048
x1 = 0.6501	854.006 ± 0.24	849.902 ± 0.24	845.785 ± 0.24	1262.9 ± 1.2	1245.5 ± 1.2	1228.6 ± 1.2	1.83 ± 0.064	1.645 ± 0.057	1.486 ± 0.052
x1 = 0.7002	846.648 ± 0.24	842.622 ± 0.24	838.579 ± 0.24	1264.3 ± 1.2	1247 ± 1.2	1230.3 ± 1.2	1.991 ± 0.069	1.783 ± 0.062	1.604 ± 0.056
x1 = 0.7493	839.512 ± 0.24	835.561 ± 0.24	831.593 ± 0.24	1266 ± 1.2	1248.9 ± 1.2	1232.4 ± 1.2	2.165 ± 0.075	1.93 ± 0.067	1.73 ± 0.06
x1 = 0.7999	832.79 ± 0.24	828.821 ± 0.24	824.83 ± 0.24	1267.4 ± 1.2	1250.6 ± 1.2	1234.3 ± 1.2	2.38 ± 0.082	2.114 ± 0.073	1.883 ± 0.065
x1 = 0.85	826.48 ± 0.24	822.668 ± 0.24	818.738 ± 0.24	1270.6 ± 1.2	1253.3 ± 1.2	1236.9 ± 1.2	2.62 ± 0.091	2.313 ± 0.08	2.053 ± 0.071
x1 = 0.8998	820.289 ± 0.24	816.551 ± 0.24	812.671 ± 0.24	1272.2 ± 1.2	1255.8 ± 1.2	1239.1 ± 1.2	2.913 ± 0.1	2.557 ± 0.089	2.258 ± 0.078
x1 = 0.9498	814.421 ± 0.24	810.743 ± 0.24	807.031 ± 0.24	1274.6 ± 1.2	1258.4 ± 1.2	1241.8 ± 1.2	3.25 ± 0.11	2.835 ± 0.098	2.489 ± 0.086
x1 = 1	809.011 ± 0.23	805.383 ± 0.24	801.731 ± 0.24	1277.7 ± 1.2	1261.1 ± 1.2	1245.1 ± 1.2	3.677 ± 0.13	3.186 ± 0.11	2.777 ± 0.096

Source: the NIST ThermoML archive (doi:10.1021/je400512u)
